This note sets out measurements from ChEMBL document CHEMBL6127136, “Discovery of 1-(Phenylsulfonyl)-1,2,3,4-tetrahydroquinoline Derivative as Orally Bioavailable and Safe RORγt Inverse Agonists for Potential Treatment of Rheumatoid Arthritis” (J Med Chem, 2024).

In series [1] the target is T1, Nuclear receptor ROR-gamma (Homo sapiens, UniProt P51449).
T1 sequence (P51449 whole entry): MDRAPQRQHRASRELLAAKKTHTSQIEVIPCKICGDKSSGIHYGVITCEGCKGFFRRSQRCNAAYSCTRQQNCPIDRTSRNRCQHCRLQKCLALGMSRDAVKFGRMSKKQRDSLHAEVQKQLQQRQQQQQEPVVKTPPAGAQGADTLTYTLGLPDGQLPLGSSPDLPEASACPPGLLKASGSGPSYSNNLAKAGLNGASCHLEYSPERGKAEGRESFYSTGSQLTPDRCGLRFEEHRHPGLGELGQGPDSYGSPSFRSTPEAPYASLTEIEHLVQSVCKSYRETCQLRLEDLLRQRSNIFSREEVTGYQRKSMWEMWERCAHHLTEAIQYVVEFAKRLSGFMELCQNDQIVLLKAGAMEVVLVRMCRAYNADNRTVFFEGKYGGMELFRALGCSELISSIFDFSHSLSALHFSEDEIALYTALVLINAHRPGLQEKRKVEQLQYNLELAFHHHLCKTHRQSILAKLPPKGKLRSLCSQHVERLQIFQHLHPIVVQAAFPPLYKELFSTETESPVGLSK
The experiment in a line: Inverse agonist activity at N-terminal 6-His-tagged/APC-labeled human RORgammat LBD extracted from Escherichia coli assessed as inhibition of europium-labeled SRC-1 recruitment incubated for 3 hrs by TR-FRET analysis. (In general: Time-resolved FRET reads energy transfer from a long-lived donor to a nearby acceptor.)

Series [2] addresses T1, Nuclear receptor ROR-gamma. The series can be described thus: Inverse agonist activity at GAL4 DNA-binding domain fused RORgamma (unknown origin) transfected in HEK293T cells co-transfected with GAL4-promoter driven luciferase reporter gene assessed as inhibition of RORgammat transcription incubated for 18 to 20 hrs by plate reader analysis. Type of series: cell-based.
For a further series, the system named is HeLa. The experiment in a line: Antiproliferative activity against human HeLa cells assessed as inhibition of colony formation at 2 to 8 uM incubated for 7 days by crystal violet staining based light microscopic analysis. Type of series: toxicity, cell-based. The following applies: 168 h, dose 2-8 µM, time 7 day.
The test system of another series is HUVEC. The series can be described thus: Antiproliferative activity against HUVEC cells assessed as inhibition of colony formation at 2 to 8 uM incubated for 7 days by crystal violet staining based light microscopic analysis. Type of series: toxicity, cell-based. The conditions noted are these: human, 168 h, dose 2-8 µM, time 7 day.

Consider `CC[C@H]1CCc2cc(C(C)C)ccc2N1S(=O)(=O)c1ccc(OCC2CCOCC2)c(CO)c1`, for which the figures for the IC50 in series [1] and in series [2] were 8.4 nM and 22.1 nM, respectively.
As for `CCc1ccc2c(c1)CCC(CC)N2S(=O)(=O)c1ccc(OCC2CCOCC2)c(CO)c1` (racemic), the IC50 in series [1] turned out to be 11 nM. Further, the Activity entry in the series on HeLa and in the series with HUVEC was “Non-Toxic” throughout.
As for `CCc1ccc2c(c1F)CCC(CC)N2S(=O)(=O)c1ccc(OCC2CCOCC2)c(CO)c1` (racemic), the 50% inhibitory concentration (IC50) in series [1] was 14 nM.

Broadly, the IC50 is the concentration at which inhibition is half-maximal.
